Measured values reported in US12258360B2, “Compositions and methods for treatment of anticancer-drug resistant cancers” (THE GEORGE WASHINGTON UNIVERSITY, priority 2020, dated 2025).
pIC50: −log10 of the molar value. Each block holds one compound with its values, some of them ahead of it.

How the values were obtained:
And-1 [1] = target: T1, And-1 (Homo sapiens, UniProt O75717); test: immunoblot analysis of And-1 expression in IGROV1 cells; format: cell-based; set-up: endogenous in cells; host or cells: IGROV1 CR; conditions: immunoblot, read-out: IC50 for inhibition of And-1 expression
T1 sequence (O75717 1-1129): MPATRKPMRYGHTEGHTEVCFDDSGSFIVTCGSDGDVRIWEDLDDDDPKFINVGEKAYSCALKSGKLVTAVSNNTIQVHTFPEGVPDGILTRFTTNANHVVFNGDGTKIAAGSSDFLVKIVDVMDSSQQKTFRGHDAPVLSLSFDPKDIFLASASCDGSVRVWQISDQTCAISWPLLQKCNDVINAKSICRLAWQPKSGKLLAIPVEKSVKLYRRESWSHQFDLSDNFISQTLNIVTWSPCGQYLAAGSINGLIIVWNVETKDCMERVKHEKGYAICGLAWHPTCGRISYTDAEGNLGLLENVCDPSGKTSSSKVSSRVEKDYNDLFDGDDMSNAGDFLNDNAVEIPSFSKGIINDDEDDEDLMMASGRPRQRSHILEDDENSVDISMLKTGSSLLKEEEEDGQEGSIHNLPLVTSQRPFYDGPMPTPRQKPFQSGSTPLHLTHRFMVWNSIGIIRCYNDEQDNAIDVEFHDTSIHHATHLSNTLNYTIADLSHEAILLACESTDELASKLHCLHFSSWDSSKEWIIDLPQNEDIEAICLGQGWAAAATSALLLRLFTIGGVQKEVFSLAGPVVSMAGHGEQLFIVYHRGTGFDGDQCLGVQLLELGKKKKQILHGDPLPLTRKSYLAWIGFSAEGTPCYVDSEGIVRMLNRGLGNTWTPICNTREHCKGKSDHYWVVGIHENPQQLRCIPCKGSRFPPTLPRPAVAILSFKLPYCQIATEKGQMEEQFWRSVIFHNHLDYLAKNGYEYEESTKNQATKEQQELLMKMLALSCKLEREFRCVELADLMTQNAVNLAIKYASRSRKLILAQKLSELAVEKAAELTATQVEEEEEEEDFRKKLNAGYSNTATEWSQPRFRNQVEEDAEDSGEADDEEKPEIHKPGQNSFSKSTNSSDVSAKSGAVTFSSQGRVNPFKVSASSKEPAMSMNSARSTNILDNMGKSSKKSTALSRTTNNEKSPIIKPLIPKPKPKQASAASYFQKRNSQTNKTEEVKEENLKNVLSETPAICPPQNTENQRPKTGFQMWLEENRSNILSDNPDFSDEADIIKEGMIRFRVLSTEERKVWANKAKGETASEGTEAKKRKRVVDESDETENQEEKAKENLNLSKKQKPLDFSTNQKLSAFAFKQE
Experimental: The high IC50 of resveratrol compromises its potential clinical application; therefore, resveratrol was used as a lead compound to screen 12 analogs of resveratrol for potent compounds that can inhibit And-1 (FIG. 14). […] To perform immunoblot analyses, cells were first treated with increasing concentrations of the 12 analogs. After treatment, the cells were harvested and then lysed with RIPA buffer protease inhibitor and phosphatase inhibitor cocktail. Protein concentration was determined by the BCA protein assay. Equal amounts of whole cell lysates were separated on sodium dodecyl sulfate polyacrylamide gel electrophoresis (SDS-PAGE) and transferred onto nitrocellulose membranes. Membranes were then incubated in blocking solution (5% non-fat milk in 20 mM TRIS-HCl, 150 mM NaCl, 0.1% Tween-20) (TBST), followed by incubation with the indicated antibodies at 4° C. overnight. The membranes were then washed in TBST and incubated with HRP-conjugated secondary antibodies for 1 hour at room temperature (21° C.±2° C.). Antibody detection was performed with an enhanced chemiluminescence reaction.

And-1 [2] = target: T1, And-1; test: cellular thermal shift assay; format: binding; set-up: endogenous in cells; host or cells: IGROV1 CR; conditions: cells incubated 8 hours, compared to DMSO
Experimental: To explore whether And-1 inhibitors directly bind to And-1, cellular thermal shift assays were performed in which a small molecule binds to a protein resulting in thermal stabilization of the protein. Briefly, cells were incubated with MG132 (10 μM), DHS, CH3, CH10 or DMSO for 8 hours. After washing with ice-cold PBS (suppled with Protease Inhibitor Cocktail), cells were aliquoted into PCR tubes (100 μL each) and then incubated at different temperatures (from 25° C. to 71° C.) for 4 minutes. After the cells were frozen and thawed twice using liquid nitrogen, proteins were isolated from the cells after centrifugation and incubated at 70° C. for 10 minutes for analysis by western blotting.

IGROV1 cells = test: flow cytometry (FACS) of propidium-iodide stained IGROV1 cells; format: cell-based, human; conditions: 1 μM
[3] = tested on: recruitment of CtIP to DSB sites in IGROV1 cells; test: immunofluorescence assay of CtIP co-localization with γH2AX after micro-irradiation; format: cell-based, human; conditions: 1 μM, 30 minutes post irradiation
Experimental: H2AX (H2A histone family member X) becomes phosphorylated on serine 139 (wherein the phosphorylated form is then called […]) as a reaction on DNA double-strand breaks (DSB). And-1 regulates DSB end resection by establishing a condition or acting as a platform for recruitment of the tumor suppressor protein CtIP—a CtBP (carboxy-terminal binding protein)-interacting protein, to the DSB sites. […] In brief, IGROV1 cells were cultured on coverslips coated with 0.01% of poly-L-lysine. After treatment, the cells were then washed once with PBS, then pre-extracted with 0.5% Triton X-100 extraction buffer (10 mM PIPES pH 7.0, 100 mM NaCl, 3 mM MgCl2 and 300 mM sucrose) on ice for 5 minutes. After washing with PBS, cells were fixed with 4% paraformaldehyde in PBS for 15 minutes. Cells were then washed and incubated for 10 minutes in blocking buffer (PBS containing 3% BSA and 0.02% Tween-20) and subsequently incubated for 1 hour with a primary antibody at room temperature. Cells were washed three times with PBS-T (PBS containing 0.02% Tween-20) and then incubated with a secondary antibody (e.g., rabbit Alexa Fluor-594 and mouse Alexa Fluor-488). After washing with PBS-T, cells were mounted with Fluoromount G containing DAPI (4′,6-diamidino-2-phenylindole—a fluorescent stain that binds strongly to adenine-thymine-rich regions in DNA). Slides were then imaged using a Nikon Eclipse 80i microscope. […]

IGROV1 CR xenograft = format: in vivo, mice
Experimental: To evaluate the potency of And-1 inhibitors in vivo, IGROV1 or MCF7 cells were subcutaneously implanted into nude mice to form ovarian or breast tumors, respectively. In brief, 5-6 week-old female BALB/c athymic nude mice (CByJ.Cg-Foxn1nu/J, weighting 20-25 grams) were inoculated subcutaneously by injecting the OC cells, cisplatin resistant OC cells or breast cancer cells suspended in 100 μl ice-cold Matrigel/PBS (1:1, V:V; 5×10^6/mouse) into the dorsal flank of each mouse. When the average tumor volume reached 100-150 mm^3, the mice were randomized into subsequent experiment groups. For tumors treated with CH3 only, CH3 was given at 0 mg/kg, 20 mg/kg and 40 mg/kg via intraperitoneal injection twice a week for three weeks. […] The relative tumor volumes were calculated using the formula: a×(b^2)/2, for which a and b represented the longest and shortest diameters, respectively. During the drug treatment, the tumor volume and body weight were measured. Tumor samples were collected 4 days after final administration of the drug.
To assess the efficacy of combination therapy with And-1 inhibitor and cisplatin in vivo, an IGROV1 CR xenograft was treated with vehicle, And-1 inhibitors, cisplatin or combination of cisplatin and And-1 inhibitor via intraperitoneal injection.

SREBP target gene SCD-1 = test: RT-PCR detection of SCD-1 gene expression in AN3CA cells; format: cell-based, human; conditions: 10 μM; for Relative mRNA expression of SCD-1: 48 h, DMSO = 1
Experimental: • 1. Experimental reagent • 2. The experimental steps are as follows: • 2.1 AN3CA cell recovery and culture (10% serum 1% double antibody in MEM medium); • 2.2 passages (passage at a ratio of 1:2); • 2.3 Place 6 well plates when the cell status is good, 5×10^5Well, culture overnight; • 2.4 adding medicine: diluting the final concentration of the drug with a culture medium to 10 μM, 2 mL/well; • 2.5 adding medicine for 48 h, and then extracting RNA; • 2.5.1 removing the culture medium, adding 0.5 mL/hole Trizol to lyse the cells, repeatedly blowing and beating the cells by a pipette after 5 min, completely lysing the cells, transferring the cells into a 1.5 mL EP tube without RNase, and standing the tube for 5 min; • 2.5.2 adding 200 µl chloroform, shaking rapidly, mixing, standing for 10 min 12000 rpm/15 min; • 2.5.3 carefully taking out the supernatant, transferring the supernatant into an EP tube, adding isopropanol with the same volume, reversing, uniformly mixing, standing for 10 min, and centrifuging at 12000 rpm/10 min; • 2.5.4 removing the supernatant, adding 1 mL of 75% ethanol for washing, centrifuging at 8000 rpm/5 min once, carefully removing the supernatant, standing at room temperature for 10 min to volatilize the ethanol, and dissolving the precipitate with 40 μL of DEPC treated water when the precipitate becomes transparent; • 2.5.5 RNA concentration was measured and DEPC-treated water was diluted to 100 ng/μL • 2.6 reverse transcription: Kit Takara (PrimeScript RT reagent Kit (Perfect Real Time)

AN3CA cells [4] = test: cell clonogenic assay in AN3CA cells; format: cell-based, human
Experimental: • 1. The experimental steps are as follows: • 1.1 AN3CA cell recovery and culture (MEM medium, 10% serum, 1% double antibody); • 1.2 Passages (1:2 ratio passage); • 1.3 When the cell state is good, laying 6-hole plates, 500/hole, and culturing overnight; • 1.4 Adding medicine: […], 2 mL/well; • 1.5 Adding medicine in a liquid changing mode every two days; • 1.6 Frequent observation. The culture was terminated when macroscopic colonies appeared in the culture dish. The supernatant was discarded, carefully rinsed 2 times with PBS and air dried. Cells were fixed with 5 mL of 4% paraformaldehyde for 30 minutes or with methanol for 10 minutes. And (3) removing the stationary liquid after air drying, adding a proper amount of GIMSA, dyeing for 10-30 minutes by using the dyeing liquid, then slowly washing away the dyeing liquid by using running water, and air drying. • 1.7 Plates were inverted and overlaid with a piece of transparent film with grid and clones were counted either directly with the naked eye or with a microscope (low power) for clones larger than 10 cells. And finally calculating the clone formation rate. • 1.8 Percent colony formation rate (number of clones/number of inoculated cells)×100%

AN3CA cells [5] = test: cell proliferation assay (MTS) in AN3CA cells; format: cell-based, human; conditions: 48 h; for inhibition of AN3CA cell proliferation (in words): 10 μM
Experimental: • 1. The experimental steps are as follows: • 1.1 AN3CA cell recovery and culture (MEM medium, 10% serum, 1% double antibody); • 1.2 Passages (passage at a ratio of 1:2); • 1.3 Place 96-well plate when the cell status is good, 1×10^4 Well, culture overnight; • culture medium with 10% defatted serum • 1.4 Adding medicine: diluting the final concentration of the drug with a culture medium to 10 μM, and treating for 48 h at 100 μL/well; • culture medium with 10% defatted serum • 1.5 Addition of 2 μL MTS/well, care taken to prevent bubble formation, 490 nm data after 1-4 h

And-1 [6] = target: T1, And-1; test: inhibition of And-1 in OV90 CR cells; format: cell-based; set-up: endogenous in cells; conditions: inhibition of And-1, OV90 CR cells
And-1 [7] = target: T1, And-1; test: inhibition of And-1 in IGROV1 CR cells; format: cell-based; set-up: endogenous in cells; host or cells: IGROV1 CR; conditions: inhibition of And-1, IGROV1 CR cells

Compound: Oc1ccc(/C=C/c2ccc(O)cc2)cc1 [DHS, reference compound]
pIC50 (And-1 [1]): 5.05 | thermal stabilization of And-1 protein at higher temperatures (And-1 [2]): stabilized

Compound: CC(=O)O.Cc1c(-c2ccc(O)cc2)n(Cc2ccc(OCCN3CCCCCC3)cc2)c2ccc(O)cc12 [BZA, reference compound]
percentage of cells in the S-phase (IGROV1 cells): reduced the percentage of cells in the S-phase | recruitment of CtIP to DSB sites induced by micro-irradiation [3]: significantly decreased | And-1 expression in tumor samples (IHC) (IGROV1 CR xenograft; IGROV1 CR xenograft): suppressed expression of And-1 | tumor growth, combination with cisplatin vs cisplatin alone (IGROV1 CR xenograft; IGROV1 CR xenograft, cisplatin 8 mg/kg, CH3 20 mg/kg, BZA 2 mg/kg intraperitoneally, three weeks): excellent synergy in reducing tumor growth | systemic toxicity of combination with cisplatin (body weight, H&E staining) (IGROV1 CR xenograft; mouse, in vivo): no obvious systemic toxicity or side effect | pIC50 (And-1 [1]): 6.49

IC50 (And-1 [6]): 21.1 µM | IC50 (And-1 [7]): 20.4 µM
Compound: OB1OCc2cc(/C=C/c3cccc(C(F)(F)F)c3)ccc21 [Compound II, (E)-5-(3-(trifluoromethyl)styryl)benzo[c][1,2]oxaborol-1(3H)-ol]
activity of reducing SCD-1 gene expression (in words) (SREBP target gene SCD-1; AN3CA cells): better than those of BF-175 | Relative mRNA expression of SCD-1 (SREBP target gene SCD-1; AN3CA cells): 0.39 | inhibitory effect on Srebp (SREBP target gene SCD-1; human endometrial cancer AN3CA cells): high inhibitory effect | inhibition of clone formation rate (AN3CA cells [4]; 10 μM): completely inhibit | inhibition of AN3CA cell proliferation (in words) (AN3CA cells [5]): superior to BF 175 | inhibition at 10 µM (AN3CA cells [5]; Homo sapiens, AN3-CA, MTS): 80%

IC50 (And-1 [6]): 29.9 µM | IC50 (And-1 [7]): 25.7 µM
Compound: OB1OCc2cc(/C=C/c3cc(Cl)cc(Cl)c3)ccc21 [XIV, (E)-5-(3,5-dichlorostyryl)benzo[c][1,2]oxaborol-1(3H)-ol]
Relative mRNA expression of SCD-1 (SREBP target gene SCD-1; AN3CA cells): 0.46 | inhibition of clonogenic rate (AN3CA cells [4]; 5 μM): comparable to that of 10 μM BF 175 | inhibition of AN3CA cell proliferation (in words) (AN3CA cells [5]): different degrees of inhibition
